Source: patent US20090291857A1, “METHODS TO IDENTIFY INHIBITORS OF THE UNFOLDED PROTEIN RESPONSE” (THE BOARD OF TRUSTEES OF THE LELAND STANFORD JUNIOR …, priority 2006, published 2009)

What was measured:
P58^IPK and DER-1 = assay: Northern blot analysis of XBP-1s transcription targets; type: cell-based, human; settings: 2 μM, Tm or hypoxia 24 hours
Protocol: Cells were cultured in 10 cm plates, harvested, and total RNA recovered with Trizol (Invitrogen, San Diego, Calif.). Total RNA (10 μg) was resolved on a 1% agarose-formaldehyde gel. ^32P-labeled probes were prepared using the Rediprime II random-prime labeling kit (GE-Amersham, Buckinghamshire, UK). The primers used to PCR amplify probes are as follows. P58^IPK: 5′[…] 3′ (SEQ ID NO: 4); 5′ […] 3′ (SEQ ID NO: 5). DER-1: 5′ […] 3′ (SEQ ID NO: 6); 5′[…] 3′ (SEQ ID NO: 7). Blots were incubated with probe overnight, washed three times in 2×SSC/0.2% SDS, dried, and exposed to a phosphorimager screen overnight. Images were analyzed using ImageQuant software (Molecular Dynamics).
A. XBP-luciferase reporter construct. Firefly luciferase was inserted downstream of the IRE1α splice site in human XBP-1 to enable the conditional translation of luciferase under ER stress in an IRE1α-dependent manner. […] After 24 hours, luciferase activity was analyzed in an automated plate reader. For each cell line, values are expressed as the percent inhibition of the median for Tm/Tg-treated wells, corrected for background. […] Values are expressed as the fold increases over uninduced levels. […] Cells were harvested, lysed, and analyzed by immunoblotting with antisera specific for HIF-1α (top), XBP-1s (middle) or actin (bottom). […] Total RNA was analyzed by Northern blotting using radiolabeled probes specific for P58^IPK or DER-1. […]

XBP-1s (5X-UPRE) = assay: 5X-UPRE luciferase reporter assay; type: cell-based, human
Protocol: HT1080 cells stably expressing the XBP-luciferase construct were grown in 60 mm dishes to 60-70% confluency. Following hypoxia treatment, cells were washed twice with PBS, lysed in 400 μl 1× reporter lysis buffer (RLB) (Promega, Madison Wis.) for 30 min at 24° C. Lysates (100 μl) were mixed with an equal volume of luciferase substrate (Promega), and assayed using a luminometer. For 5×-UPRE-luciferase reporter assays, cells were co-transfected with the appropriate reporter plasmid and a control plasmid (pSV40-beta-gal) using Lipofectamine 2000 (Invitrogen, San Diego, Calif.). Twenty-four hours after transfection, fresh media was added, and cells were treated with Tm or shifted to hypoxia. After treatment, cells were lysed in 1× RLB and analyzed for luciferase activity as described above. Beta-galactosidase activity was determined using the beta-galactosidase enzyme assay system (Promega).
A. XBP-luciferase reporter construct. […] After 24 hours, luciferase activity was analyzed in an automated plate reader. For each cell line, values are expressed as the percent inhibition of the median for Tm/Tg-treated wells, corrected for background. […] Values are expressed as the fold increases over uninduced levels. […] Cells were harvested, lysed, and analyzed by immunoblotting with antisera specific for HIF-1α (top), XBP-1s (middle) or actin (bottom). […]

[1] = Histopathological analysis of major organs; type: in vivo, mouse; settings: three doses, 50 mg/kg
Protocol: Complete blood counts (CBC's) and clinical chemistry panels were performed on blood obtained by cardiac puncture after euthanasia with CO2. Gross necropsies were performed, all major viscera were harvested, fixed in 10% buffered neutral formalin, routinely processed for paraffin embedding, and stained with hematoxylin and eosin (H&E). Sections were analyzed by a board-certified veterinary pathologist (DMB).
Pancreas and liver specimens recovered from mice treated with three doses of either vehicle (top) or irestatin 9389 (50 mg/kg; bottom) were sectioned and stained with hematoxylin and eosin.
The increased sensitivity of irestatin-treated cells to hypoxic stress in vitro indicate that selective inhibition of IRE1α signaling could impact tumor growth. […] In contrast, XBP-1s was not detected in normal pancreas specimens (0/20), and infrequently observed in chronic pancreatitis (1/29) (FIG. 15). To explore the effects to irestatin 9389 in vivo, we first established animal dosing parameters using real-time bioluminescence imaging of SCID mice that had been implanted subcutaneously (s.c.) with tumor cells stably expressing the XBP-luciferase reporter. […] The XBP-luciferase signal returned to basal levels by 24 hours after treatment. […] (FIG. 16).

[2] = test system: HT1080 tet-off Flag-XBP-1s cells; assay: Colony formation of HT1080 tet-off Flag-XBP-1s cells under hypoxia; type: cell-based, human; settings: 2.5 μM, no dox, hypoxia 48 hours

## Cc1csc(NC(=O)CSc2nc3c(c(C(F)(F)F)c2C#N)CCC3)n1 [Compound 9389]
P58^IPK and DER-1
  induction of P58^IPK and DER-1 expression: fully inhibited this response
XBP-1s (5X-UPRE); 48 hours of hypoxia, vehicle 170-fold
  diminution of 5X-UPRE luciferase response under hypoxia: more than 90%
XBP-1s (5X-UPRE); Tm plus irestatin, Tm alone ~12-fold
  5X-UPRE luciferase induction over untreated cells: < 4 fold
[1]
  histopathology of all major organs versus vehicle: no significant differences
[2]
  survival of hypoxic cells expressing Flag-XBP-1s: minimal effect
